# In publication PMC8952364, “Polyphenols as Inhibitors of Antibiotic Resistant Bacteria—Mechanisms Underlying Rutin Interference with Bacterial Virulence” (Pharmaceuticals, 2022):
# Where two headings read alike, the source gives them in different places.
# What was measured:
# [1] = tested on: Methicillin resistant S. aureus IBRS MRSA 011; experiment: Antimicrobial microdilution assay (MIC/MBC); assay type: cell-based, Staphylococcus aureus; details: for MIC: 37 °C, 24 h; for MBC: subcultivation, 24 h at 37 °C
# Procedure: (§1) The bacterial suspension (0.5 Mc Farland) was prepared, and twenty-fold dilutions of these suspensions were mixed in a 1:10 ratio with the corresponding polyphenol dilution (0.0039–1 mg/mL). Microtiter plates were incubated at 37 °C for 24 h. The lowest concentrations without visible growth (under a binocular microscope) were defined as MICs. The bactericidal concentrations (MBCs) were determined by serial subcultivation of 2 μL of the well’s content and further incubation for 24 h at 37 °C. Streptomycin (SigmaAldrich, Darmstadt, Germany) was used as a positive control. The polyphenols were obtained from Extrasynthese, Rhone, France (rutin, isoquercitrin) and SigmaAldrich, Germany (hesperetin, hesperidin, naringenin, naringin, taxifolin, morin, chlorogenic acid, ferulic acid, p-coumaric acid, and gallic acid). The stock compounds were prepared in ethanol (30%), and adequate ethanol concentrations were used as the negative control in the assays. Experiments were done in triplicate.
# P. aeruginosa IBRS P001 = experiment: Antimicrobial microdilution assay (MIC/MBC); assay type: cell-based, Pseudomonas aeruginosa; details: for MIC: 37 °C, 24 h; for MBC: subcultivation, 24 h at 37 °C
# Procedure: as §1
# P. aeruginosa MMA83 = experiment: Antimicrobial microdilution assay (MIC/MBC); assay type: cell-based, Pseudomonas aeruginosa; details: for MIC: 37 °C, 24 h; for MBC: subcultivation, 24 h at 37 °C
# Procedure: as §1
# E. coli IBRS E003 = experiment: Antimicrobial microdilution assay (MIC/MBC); assay type: cell-based, Escherichia coli; details: for MIC: 37 °C, 24 h; for MBC: subcultivation, 24 h at 37 °C
# Procedure: as §1
# E. coli IMD989 = experiment: Antimicrobial microdilution assay (MIC/MBC); assay type: cell-based, Escherichia coli; details: for MIC: 37 °C, 24 h; for MBC: subcultivation, 24 h at 37 °C
# Procedure: as §1
# A. baumannii 6077/12 = experiment: Antimicrobial microdilution assay (MIC/MBC); assay type: cell-based, Acinetobacter baumannii; details: for MIC: 37 °C, 24 h; for MBC: subcultivation, 24 h at 37 °C
# Procedure: as §1
# A. baumannii S2/2 = experiment: Antimicrobial microdilution assay (MIC/MBC); assay type: cell-based, Acinetobacter baumannii; details: for MIC: 37 °C, 24 h; for MBC: subcultivation, 24 h at 37 °C
# Procedure: as §1
# K. pneumoniae IT977 = experiment: Antimicrobial microdilution assay (MIC/MBC); assay type: cell-based, Klebsiella pneumoniae; details: for MIC: 37 °C, 24 h; for MBC: subcultivation, 24 h at 37 °C
# Procedure: as §1
# K. pneumoniae Ni9 = experiment: Antimicrobial microdilution assay (MIC/MBC); assay type: cell-based, Klebsiella pneumoniae; details: for MIC: 37 °C, 24 h; for MBC: subcultivation, 24 h at 37 °C
# Procedure: as §1
# A. xylosoxidans 37F = experiment: Antimicrobial microdilution assay (MIC/MBC); assay type: cell-based, Achromobacter xylosoxidans; details: for MIC: 37 °C, 24 h; for MBC: subcultivation, 24 h at 37 °C
# Procedure: as §1
# S. infantis 1371/1 = experiment: Antimicrobial microdilution assay (MIC/MBC); assay type: cell-based, Salmonella Infantis; details: for MIC: 37 °C, 24 h; for MBC: subcultivation, 24 h at 37 °C
# Procedure: as §1
# [2] = tested on: P. aeruginosa IBRS P001 biofilm; experiment: Crystal violet antibiofilm assay (biofilm formation); assay type: cell-based, Pseudomonas aeruginosa; details: MIC and sub-MIC, 24 h, crystal violet, Figure 1
# Procedure: After incubation, each well was washed twice with sterile PBS (phosphate-buffered saline, pH 7.4) and fixed with methanol for 10 min. After removal of methanol the plate was air-dried. The biofilm was stained with 0.1% crystal violet (Bio-Merieux, Marcy l’Etoile, France) for 30 min. The plate was washed with water, air dried, and the stain was dissolved with 200 μL of 96% ethanol (Zorka, Sabac, Serbia). The absorbance was read at 620 nm on a Multiskan™ FC microplate photometer (Thermo Scientific™, Waltham, MA, USA). The results are presented as biofilm forming capacity (%) compared to control.
# HaCaT cells = experiment: Cytotoxicity in HaCaT cell line (crystal violet assay); assay type: cell-based, human; details: HaCaT
# Procedure: For determination of the polyphenols’ cytotoxic effect, a crystal violet assay was used, with modifications. The cytotoxic effect of polyphenols was analyzed on spontaneously immortalized human skin keratinocytes (HaCaT, AddexBio No. T0020001, San Diego, CA, USA) cell lines. […] Cells (1 × 10^4 cells/well) were seeded in a 96-well plate (Sarstedt, Nümbrecht, Germany) 24 h before treatment. […] Cells were incubated with the compounds for 24 h. […] After crystal violet was removed, the plates were washed in a stream of tap water and left to air-dry at room temperature for 24 h. The absorbance was measured in a microplate reader (Multiskan™ FC Microplate Photometer, Thermo Scientific™) at 590 nm. The results were expressed as IC50 value in μg/mL. The criterion used to categorize the cytotoxic activity polyphenols was as follows: […] All analyses were performed in triplicate; each replicate was also quantified three times. Data were expressed as mean standard deviation, where applicable.
# [3] = tested on: eleven antibiotic resistant strains of bacteria; experiment: Antimicrobial assay, summary over the examined strains; assay type: cell-based
# Procedure: as §1
# [4] = tested on: E. coli (0157:H7 ATCC 51659); parameters: method as in PMID 34073447; details: cited from earlier work
# S. aureus (ATCC 25923) = tested on: S. aureus (ATCC 25923); parameters: method as in PMID 34073447; details: cited from earlier work
# [5] = tested on: P. aeruginosa (NRRLB-272); parameters: method as in PMID 34073447; details: cited from earlier work
# [6] = tested on: S. aureus Newman and S. aureus Newman Δcoa; parameters: method as in PMID 32130467; details: cited from earlier work
# [7] = tested on: S. aureus clinical isolate; parameters: method as in doi:10.5937/leksir2040057K; details: cited from earlier work
# S. aureus ATCC 11632 = tested on: S. aureus ATCC 11632; parameters: method as in doi:10.5937/leksir2040057K; details: cited from earlier work
smiles,measurement,setting,value
"COc1ccc([C@@H]2CC(=O)c3c(O)cc(O[C@@H]4O[C@H](CO[C@@H]5O[C@@H](C)[C@H](O)[C@@H](O)[C@H]5O)[C@@H](O)[C@H](O)[C@H]4O)cc3O2)cc1O [Hesperidin, hesperidin]",MIC,[1],500 µg/mL
same,MBC,[1],1000 µg/mL
same,MIC,P. aeruginosa IBRS P001,500 µg/mL
same,MBC,P. aeruginosa IBRS P001,1000 µg/mL
same,MIC,P. aeruginosa MMA83,1000 µg/mL
same,MBC,P. aeruginosa MMA83,1000 µg/mL
same,MIC,E. coli IBRS E003,>1000 µg/mL
same,MBC,E. coli IBRS E003,>1000 µg/mL
same,MIC,E. coli IMD989,>1000 µg/mL
same,MBC,E. coli IMD989,>1000 µg/mL
same,MIC,A. baumannii 6077/12,500 µg/mL
same,MBC,A. baumannii 6077/12,500 µg/mL
same,MIC,A. baumannii S2/2,500 µg/mL
same,MBC,A. baumannii S2/2,500 µg/mL
same,MIC,K. pneumoniae IT977,1000 µg/mL
same,MBC,K. pneumoniae IT977,1000 µg/mL
same,MIC,K. pneumoniae Ni9,1000 µg/mL
same,MBC,K. pneumoniae Ni9,1000 µg/mL
same,MIC,A. xylosoxidans 37F,1000 µg/mL
same,MBC,A. xylosoxidans 37F,1000 µg/mL
same,MIC,S. infantis 1371/1,>1000 µg/mL
same,MBC,S. infantis 1371/1,>1000 µg/mL
same,"reduction of biofilm formation (biomass), in words",[2],"significant (****, p < 0.0001) reduction"
same,"cytotoxicity towards HaCaT, in words",HaCaT cells; 24 h,non-cytotoxic properties
same,IC50 (compound concentration that inhibited 50% of the cell growth),"HaCaT cells; 24 h treatment, crystal violet",>1000 µg/mL
same,cytotoxicity category,HaCaT cells; maximal tested concentrations (1 mg/mL),no cytotoxicity (IC50 > 501 µg/mL = no cytotoxicity)
same,MIC towards a range of antibiotic-resistant bacterial strains,[3]; summary of Table 1,≥ 500 µg/mL
same,MIC,[4],1130 µg/mL
same,MIC,S. aureus (ATCC 25923),1530 µg/mL
same,MIC,[5],1270 µg/mL
"O=c1c(O[C@@H]2O[C@H](CO)[C@@H](O)[C@H](O)[C@H]2O)c(-c2ccc(O)c(O)c2)oc2cc(O)cc(O)c12 [Isoquercitrin, isoquercitrin]",MIC,"[1]; Staphylococcus aureus, MRSA, read-out: MIC",500 µg/mL
same,MBC,"[1]; Staphylococcus aureus, MRSA, read-out: MBC",1000 µg/mL
same,MIC,"P. aeruginosa IBRS P001; Pseudomonas aeruginosa, IBRSP001, read-out: MIC",250 µg/mL
same,MBC,"P. aeruginosa IBRS P001; Pseudomonas aeruginosa, IBRSP001, read-out: MBC",500 µg/mL
same,MIC,"P. aeruginosa MMA83; Pseudomonas aeruginosa, MMA83, read-out: MIC",250 µg/mL
same,MBC,"P. aeruginosa MMA83; Pseudomonas aeruginosa, MMA83, read-out: MBC",250 µg/mL
same,MIC,"E. coli IBRS E003; Escherichia coli, IBRSE003, read-out: MIC",> 1000 µg/mL
same,MBC,"E. coli IBRS E003; Escherichia coli, IBRSE003, read-out: MBC",> 1000 µg/mL
same,MIC,"E. coli IMD989; Escherichia coli, IMD989, read-out: MIC",1000 µg/mL
same,MBC,"E. coli IMD989; Escherichia coli, IMD989, read-out: MBC",1000 µg/mL
same,MIC,"A. baumannii 6077/12; Acinetobacter baumannii, 6077/12, read-out: MIC",250 µg/mL
same,MBC,"A. baumannii 6077/12; Acinetobacter baumannii, 6077/12, read-out: MBC",500 µg/mL
same,MIC,"A. baumannii S2/2; Acinetobacter baumannii, S2/2, read-out: MIC",500 µg/mL
same,MBC,"A. baumannii S2/2; Acinetobacter baumannii, S2/2, read-out: MBC",500 µg/mL
same,MIC,"K. pneumoniae IT977; Klebsiella pneumoniae, IT977, read-out: MIC",1000 µg/mL
same,MBC,"K. pneumoniae IT977; Klebsiella pneumoniae, IT977, read-out: MBC",1000 µg/mL
same,MIC,"K. pneumoniae Ni9; Klebsiella pneumoniae, NI9, read-out: MIC",500 µg/mL
same,MBC,"K. pneumoniae Ni9; Klebsiella pneumoniae, NI9, read-out: MBC",1000 µg/mL
same,MIC,"A. xylosoxidans 37F; Achromobacter xylosoxidans, 37F, read-out: MIC",500 µg/mL
same,MBC,"A. xylosoxidans 37F; Achromobacter xylosoxidans, 37F, read-out: MBC",500 µg/mL
same,MIC,"S. infantis 1371/1; Salmonella enterica, 1371/1, read-out: MIC",1000 µg/mL
same,MBC,"S. infantis 1371/1; Salmonella enterica, 1371/1, read-out: MBC",1000 µg/mL
same,"reduction of biofilm formation (biomass), in words",[2],"promising (***, p ≤ 0.001) potential to reduce the biomass"
same,IC50,"HaCaT cells; Homo sapiens, 24 h, read-out: IC50 (compound concentration that inhibited 50% of the cell growth)",> 1000 µg/mL
same,MIC,"[3]; antibiotic resistant strains of Table 1, read-out: lowest MIC among the examined strains",250 µg/mL
same,MIC (no inhibitory activity up to),[6],> 1024 µg/mL
same,MIC,[7],200 µg/mL
same,MIC,S. aureus ATCC 11632,100 µg/mL
